From US9095587B2, “Methods and compositions for improved nerve conduction velocity” (Spinifex Pharmaceuticals Pty Ltd, priority 2010, dated 2015)
Where “and” joins values, the source holds several entries; their conditions need not be identical. Identical values can stand only once. Counter-ions that a name gives are not always drawn.

Tests used:
[1] = target: T1, AT1 (h) human recombinant (CHO cells) (Homo sapiens, UniProt P30556); assay: AT1 (h) receptor binding assay; settings: [125I][Sar1, Ile8]-AT II 0.05 nM, 60 min./37° C.; highest tested concentration
T1 construct: expressed in transfected cells; host or cells: CHO cells
T1 sequence (P30556 1-359): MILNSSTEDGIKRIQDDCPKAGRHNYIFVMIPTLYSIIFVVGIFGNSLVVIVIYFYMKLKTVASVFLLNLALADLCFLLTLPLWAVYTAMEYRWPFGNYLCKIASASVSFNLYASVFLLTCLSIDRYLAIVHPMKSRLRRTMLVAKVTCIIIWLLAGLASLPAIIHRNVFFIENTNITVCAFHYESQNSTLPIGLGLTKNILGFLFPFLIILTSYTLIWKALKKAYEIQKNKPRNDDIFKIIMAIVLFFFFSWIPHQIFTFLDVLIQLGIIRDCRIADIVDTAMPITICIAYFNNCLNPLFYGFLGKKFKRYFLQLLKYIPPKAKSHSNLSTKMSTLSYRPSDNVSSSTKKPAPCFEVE
Method: (§5) The specific ligand binding to the receptors is defined as the difference between the total binding and the nonspecific binding determined in the presence of an excess of unlabelled ligand. […] The IC50 values (concentration causing a half-maximal inhibition of control specific binding) and Hill coefficients (nH) were determined by non-linear regression analysis of the competition curves using Hill equation curve fitting. The inhibition constants (Ki) were calculated from the Cheng Prusoff equation (Ki=IC50/(1+(L/KD)), where L=concentration of radioligand in the assay, and KD=affinity of the radioligand for the receptor).

[2] = target: AT2 (h) human recombinant (Hela cells) (Homo sapiens, UniProt P50052); settings: competition curve, Hill equation curve fitting
Chain of AT2 (h) human recombinant (Hela cells) (P50052 whole entry): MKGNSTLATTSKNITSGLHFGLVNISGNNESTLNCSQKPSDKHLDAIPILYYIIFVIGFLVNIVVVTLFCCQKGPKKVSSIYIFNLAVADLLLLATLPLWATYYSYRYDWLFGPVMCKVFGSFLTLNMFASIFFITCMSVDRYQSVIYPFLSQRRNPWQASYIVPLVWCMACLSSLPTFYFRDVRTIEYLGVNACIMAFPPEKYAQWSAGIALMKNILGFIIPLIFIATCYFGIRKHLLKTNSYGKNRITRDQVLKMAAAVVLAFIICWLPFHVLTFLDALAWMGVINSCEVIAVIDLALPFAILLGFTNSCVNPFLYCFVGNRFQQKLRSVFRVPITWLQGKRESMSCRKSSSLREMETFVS
Method: as §5

diabetic rats [3] = assay: Sciatic motor nerve conduction velocity in STZ-diabetic rats; type: in vivo, rat; settings: for Motor NCV, Mean: group mean of 10 diabetic rats; for Motor NCV, Mean / Motor NCV: last 2 weeks of 8 weeks diabetes; for Motor NCV: individual diabetic rats
Method: (§1) Methods: Diabetes was induced in mature (19 week old) male Sprague-Dawley by a single STZ injection (40-45 mg/kg i.p.). The diabetic state was monitored weekly using commercially available test strips for blood (tail vein) and urine glucose levels. Body weight was also monitored daily. The criteria for the diabetic state were: blood glucose>19.9 mM, glycosuria, and no evidence of body weight gain.
(§2) In final experiments, rats were anaesthetized with thiobutabarbital (50-100 mg kg-1 i.p.) The trachea was cannulated for artificial respiration. The level of anaesthesia was monitored by observing any reaction of blood pressure to manipulation, supplementary thiobutabarbital anaesthetic being given as necessary. As described in detail by Cameron et al., (Q. J. Expt Physiol, 74; 917-926, 1989 and Diabetes, 40:532-539, 1991), the sciatic nerve was exposed between the sciatic notch and knee. Bipolar stimulating electrodes were placed close to the nerve at the notch and knee. A concentric bipolar electrode was inserted into tibialis anterior muscle to monitor evoked electromyographic (EMG) activity. Potentials evoked from each stimulating site were averaged 8 times. Motor nerve conduction velocity (NCV) was calculated by dividing the distance between stimulating electrodes by the average latency difference between the onsets of EMG potentials evoked from the 2 sites. Nerve temperature was monitored using a thermocouple probe, and maintained in the range 36-38° C. by radiant heat. Body temperature was also maintained around 37° C. using a heated blanket.
(§3) Methods: Diabetes was induced in mature (19 week old) male Sprague-Dawley by a single STZ injection (40-45 mg/kg i.p.). The diabetic state was monitored weekly using commercially available test strips for blood (tail vein) and urine glucose levels. Body weight was also be monitored daily. The criteria for the diabetic state were: blood glucose>19.9 mM, glycosuria, and no evidence of body weight gain.
as §2, with “necessary. The” for “necessary. As described in detail by Cameron et al., (Q. J. Expt Physiol, 74; 917-926, 1989 and Diabetes, 40:532-539, 1991), the”, “averaged […]” for “averaged 8”, “Motor NCV” for “Motor nerve conduction velocity (NCV)”, “blanket. Sensory NCV was measured for sensory saphenous nerve between groin and mid-calf in a similar fashion, except that direct nerve evoked potentials were recorded at the ankle using a unipolar platinum hook electrode. Reference values for comparison of the NCV data were obtained from nondiabetic control and 8 week diabetic control rats.” for “blanket.”
(§4) Diabetes was induced in mature (19 week old) male Sprague-Dawley by a single STZ injection (40-45 mg/kg i.p.). The diabetic state was monitored weekly using commercially available test strips for blood (tail vein) and urine glucose levels. Body weight was also monitored daily. The criteria for the diabetic state were: blood glucose>19.9 mM, glycosuria, and no evidence of body weight gain.
In final experiments, rats were anaesthetized with thiobutabarbital (50-100 mg kg-1 i.p.) The trachea was cannulated for artificial respiration. […]

[4] = Body weight, blood glucose and general condition of treated diabetic rats; type: in vivo, rat; settings: for End weight, Mean: group mean of 10 diabetic rats; for End weight, Mean / End weight: last 2 weeks of 8 weeks diabetes; for End weight: individual diabetic rats
Method: as §1, §3

diabetic rats [5] = assay: Saphenous sensory nerve conduction velocity in STZ-diabetic rats; type: in vivo, rat; settings: for Sensory NCV, Mean: group mean of 10 diabetic rats; for Sensory NCV, Mean / Sensory NCV: last 2 weeks of 8 weeks diabetes; for Sensory NCV: individual diabetic rats
Method: as §1
Sensory NCV was measured for sensory saphenous nerve between groin and mid-calf in a similar fashion, except that direct nerve evoked potentials were recorded at the ankle using a unipolar platinum hook electrode.
as §3
as §2, with “necessary. The” for “necessary. As described in detail by Cameron et al., (Q. J. Expt Physiol, 74; 917-926, 1989 and Diabetes, 40:532-539, 1991), the”, “averaged […]” for “averaged 8”, “Motor NCV” for “Motor nerve conduction velocity (NCV)”, “blanket. Sensory NCV was measured for sensory saphenous nerve between groin and mid-calf in a similar fashion, except that direct nerve evoked potentials were recorded at the ankle using a unipolar platinum hook electrode. Reference values for comparison of the NCV data were obtained from nondiabetic control and 8 week diabetic control rats.” for “blanket.”
as §4
as §2, with “The” for “As described in detail by Cameron et al., (Q. J. Expt Physiol, 74; 917-926, 1989 and Diabetes, 40:532-539, 1991), the”, “NCV” for “nerve conduction velocity (NCV)”, “blanket. Sensory NCV was measured for sensory saphenous nerve between groin and mid-calf in a similar fashion, except that direct nerve evoked potentials were recorded at the ankle using a unipolar platinum hook electrode. […]” for “blanket.”

diabetic rats [6] = assay: Thermal hyperalgesia, Hargreaves plantar test, diabetic rats; type: in vivo, rat
Method: as §4
Tactile allodynia thresholds for the foot were measured by an electronic von Frey hair apparatus. Latencies for foot withdrawal reflexes to noxious thermal stimulation were estimated by the Hargreaves plantar test (Hargreaves K, Dubner R, Brown F, Flores C, Joris J. A new and sensitive method for measuring thermal nociception in cutaneous hypeialgesia. Pain 1988; 32: 77-88). All tests were carried out using commercially available equipment (Ugo-Basile, Comerio, Italy). Measurements were made in a constant temperature room at the same time each day, and rats were given a 3-day period for familiarization with handling, the environment, equipment, and experimental procedure.
In a similar way to the assessment of tactile allodynia, thermal sensitivity was also measured on 2 separate occasions, before and after treatment. […] After 30 min acclimatization, a constant power infrared stimulus was focused onto the sole of the foot and the latency for reflex foot withdrawal recorded via a photoelectric monitor. […]

diabetic rats [7] = assay: Tactile allodynia, electronic von Frey hair apparatus, diabetic rats; type: in vivo, rat
Method: as §4
Tactile allodynia thresholds for the foot were measured by an electronic von Frey hair apparatus. Latencies for foot withdrawal reflexes to noxious thermal stimulation were estimated by the Hargreaves plantar test (Hargreaves K, Dubner R, Brown F, Flores C, Joris J. A new and sensitive method for measuring thermal nociception in cutaneous hypeialgesia. Pain 1988; 32: 77-88). All tests were carried out using commercially available equipment (Ugo-Basile, Comerio, Italy). […]
Tactile allodynia was estimated on two separate occasions; once on a day before treatment was initiated, and then on the day immediately following the last day of the treatment period. […] Thus, stimulus intensity tracked the threshold, and a run of 6 near-threshold responses was used to estimate the 50% threshold value using lookup tables (Chaplan S R, Bach F W, Pogrel J W, Chung J M, Yaksh T L. Quantitative assessment of tactile allodynia in the rat paw. J Neurosci Meth 1994; 53: 55-63). […]

[8] = 1.048 mg/kg daily by gavage for 2 weeks
[9] = 0.01048 mg/kg daily by gavage, 0.01048 mg/kg
[10] = 0.0349 mg/kg daily by gavage, 0.0349 mg/kg
[11] = 0.1048 mg/kg daily by gavage, 0.1048 mg/kg
[12] = 1.048 mg/kg daily by gavage, 1.048 mg/kg
[13] = 1.048 mg/kg daily by oral gavage
[14] = 1.048 mg/kg daily by oral gavage, 28 days
[15] = 1.048 mg/kg by oral gavage, 1 day, before vs after drug

COc1ccc2c(c1OCc1ccccc1)C[C@@H](C(=O)O)N(C(=O)C(c1ccccc1)c1ccccc1)C2 [Compound 1, S-2-(diphenylacetyl)-5-benzyloxy-6-methoxy-1,2,3,4-tetrahydroisoquinoline-3-carboxylic acid]
Flags (IC50 determination) [1]: N.C. (Not calculable. IC50 value is not calculable because of less than 25% inhibition at the highest tested concentration.) | nH (Hill coefficient) [2]: 1.3 | sciatic motor NCV compared with nondiabetic control group (one way ANOVA, Bonferroni test) (diabetic rats [3]; [8]): not significantly different | reversal of the diabetic deficit, sciatic motor NCV (diabetic rats [3]; 1.048 mg/kg daily by gavage for 2 weeks, vs nondiabetic and diabetic reference groups): 92.6±5.4%

COc1ccc2c(c1OCc1ccccc1)C[C@@H](C(=O)O)N(C(=O)C(c1ccccc1)c1ccccc1)C2 [Compound 1 sodium salt, S-2-(diphenylacetyl)-5-benzyloxy-6-methoxy-1,2,3,4-tetrahydroisoquinoline-3-carboxylic acid]
condition of animals at the end of the experimental period [4, 8]: in good condition and behaviourally alert | condition of animals at the end of the experimental period ([4]; 0.1048, 0.0349 or 0.01048 mg/kg daily by gavage for 2 weeks): in good condition and behaviourally alert | End weight, Mean ([4]; 0.01048 mg/kg daily by gavage): 372 g | End weight, Mean ([4]; 0.0349 mg/kg daily by gavage): 357 g | End weight, Mean ([4]; 0.1048 mg/kg daily by gavage): 369 g | End weight, Mean ([4]; 1.048 mg/kg daily by gavage): 390 g | End weight [4, 9]: 374 g and 436 g and 346 g and 438 g and 349 g and 329 g and 364 g and 385 g and 386 g and 312 g | End weight [4, 10]: 369 g and 427 g and 400 g and 396 g and 332 g and 307 g and 277 g and 327 g and 368 g (2×) | End weight [4, 11]: 398 g and 363 g and 298 g and 315 g and 357 g and 346 g and 392 g and 405 g and 374 g and 440 g | End weight [4, 12]: 429 g and 380 g and 389 g and 393 g and 390 g and 353 g and 366 g and 418 g and 360 g and 425 g | diabetic deficit corrected, saphenous sensory NCV (diabetic rats [5]; 1.048 mg/kg daily by gavage for 2 weeks, p<0.001, vs reference groups): 99.1±5.0% | treatment duration after which sensory NCV was statistically within the nondiabetic range (diabetic rats [5]; [13]): 3 days | sensory NCV, 28-day treatment group versus 14-day data (diabetic rats [5]; [14]): entirely comparable with the previously obtained 14-day data | ED50 (diabetic rats [5]; Rattus norvegicus, 336 h, oral, daily for 2 weeks, best fit sigmoid curve, read-out: ED50, correction of saphenous sensory NCV deficit): 0.02 mg/kg | Sensory NCV, Mean (diabetic rats [5]; 0.01048 mg/kg daily by gavage): 53.93 m/s | Sensory NCV, Mean (diabetic rats [5]; 0.0349 mg/kg daily by gavage): 57.25 m/s | Sensory NCV, Mean (diabetic rats [5]; 0.1048 mg/kg daily by gavage): 60.73 m/s | Sensory NCV, Mean (diabetic rats [5]; 1.048 mg/kg daily by gavage): 61.10 m/s | Sensory NCV (diabetic rats [5]; [9]): 55.47 m/s and 56.07 m/s and 51.59 m/s and 54.39 m/s and 55.30 m/s and 51.82 m/s and 51.85 m/s and 55.81 m/s and 53.85 m/s and 53.19 m/s | Sensory NCV (diabetic rats [5]; [10]): 57.43 m/s and 57.94 m/s and 55.60 m/s and 59.95 m/s and 56.00 m/s and 57.50 m/s and 55.93 m/s and 57.73 m/s and 57.72 m/s and 56.72 m/s | Sensory NCV (diabetic rats [5]; [11]): 61.11 m/s and 62.96 m/s and 61.22 m/s and 56.67 m/s and 63.16 m/s and 62.50 m/s (2×) and 63.04 m/s and 58.33 m/s and 55.83 m/s | Sensory NCV (diabetic rats [5]; [12]): 62.50 m/s (4×) and 60.63 m/s and 60.41 m/s and 60.71 m/s and 57.57 m/s and 60.98 m/s and 60.74 m/s | effect on thermal hyperalgesia of only 1 day of treatment (paired Student's t) (diabetic rats [6]; [15]): significant, albeit partial | treatment duration to full correction of thermal hyperalgesia (diabetic rats [6]; [13]): 3 days | treatment duration after which motor NCV was statistically within the nondiabetic range (diabetic rats [3]; [13]): 7 days | motor NCV, 28-day treatment group versus 14-day data (diabetic rats [3]; [14]): entirely comparable with the previously obtained 14-day data | ED50 (diabetic rats [3]; Rattus norvegicus, 336 h, oral, daily for 2 weeks, best fit sigmoid curve, read-out: ED50, correction of sciatic motor NCV deficit): 0.044 mg/kg | Motor NCV, Mean (diabetic rats [3]; 0.01048 mg/kg daily by gavage): 53.25 m/s | Motor NCV, Mean (diabetic rats [3]; 0.0349 mg/kg daily by gavage): 56.68 m/s | Motor NCV, Mean (diabetic rats [3]; 0.1048 mg/kg daily by gavage): 60.51 m/s | Motor NCV, Mean (diabetic rats [3]; 1.048 mg/kg daily by gavage): 63.72 m/s | Motor NCV (diabetic rats [3]; [9]): 54.92 m/s and 55.17 m/s and 54.10 m/s and 50.78 m/s and 54.03 m/s and 51.60 m/s and 51.96 m/s and 56.90 m/s and 50.70 m/s and 52.38 m/s | Motor NCV (diabetic rats [3]; [10]): 56.15 m/s and 57.38 m/s and 56.90 m/s and 57.89 m/s and 59.32 m/s and 56.67 m/s and 53.68 m/s and 58.18 m/s and 54.55 m/s and 56.06 m/s | Motor NCV (diabetic rats [3]; [11]): 59.13 m/s and 61.48 m/s and 60.00 m/s (2×) and 58.62 m/s and 63.63 m/s and 64.15 m/s and 59.02 m/s and 60.78 m/s and 58.33 m/s | Motor NCV (diabetic rats [3]; [12]): 62.87 m/s and 62.30 m/s and 62.84 m/s and 62.50 m/s and 63.90 m/s and 62.69 m/s and 64.95 m/s and 61.75 m/s and 69.57 m/s and 63.81 m/s | effect on tactile allodynia of only 1 day of treatment (paired Student's t) (diabetic rats [7]; [15]): significant, albeit partial | treatment duration to full correction of tactile allodynia (diabetic rats [7]; [13]): 3 days
